From PubChem BioAssay AID248 (DTP/NCI, 2004)
Where “and” joins values, the source holds several entries; their conditions need not be identical. Equal values may be shown once. Inconclusive results and toxic doses are left out. Rule as the data show it: active = T/C of 150% or more; inactive = T/C below 125%.

Tested on: L1210 leukemia ip in BDF1 mice, survival T/C
Assay: NCI In Vivo Anticancer Drug Screen. Data for tumor model L1210 Leukemia (intraperitoneal) in B6D2F1 (BDF1) mice
Conditions: endpoint: mean survival time, higher = longer survival
Method in brief: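 Value reflects the ratio of survival in compound-treated mice to survival in vehicle-treated controls, with both groups carrying the same transplanted tumor.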

[1] = dose: 100.0 mg/kg/injection, schedule: Q01DX001 (ip), vehicle: Klucel (hydroxypropylcellulose) (HPC)
[2] = dose: 100.0 mg/kg/injection, schedule: Q04DX003 (ip), vehicle: Klucel (hydroxypropylcellulose) (HPC)
[3] = dose: 200.0 mg/kg/injection, schedule: Q01DX001 (ip), vehicle: Klucel (hydroxypropylcellulose) (HPC)
[4] = dose: 200.0 mg/kg/injection, schedule: Q04DX003 (ip), vehicle: Klucel (hydroxypropylcellulose) (HPC)
[5] = dose: 400.0 mg/kg/injection, schedule: Q01DX001 (ip), vehicle: Klucel (hydroxypropylcellulose) (HPC)
[6] = dose: 400.0 mg/kg/injection, schedule: Q04DX003 (ip), vehicle: Klucel (hydroxypropylcellulose) (HPC)
[7] = dose: 25.0 mg/kg/injection, schedule: Q01DX009 (ip), vehicle: Klucel (hydroxypropylcellulose) (HPC)
[8] = dose: 50.0 mg/kg/injection, schedule: Q01DX009 (ip), vehicle: Klucel (hydroxypropylcellulose) (HPC)
[9] = dose: 100.0 mg/kg/injection, schedule: Q01DX009 (ip), vehicle: Klucel (hydroxypropylcellulose) (HPC)
[10] = dose: 200.0 mg/kg/injection, schedule: Q01DX009 (ip), vehicle: Klucel (hydroxypropylcellulose) (HPC)
[11] = dose: 100.0 mg/kg/injection, schedule: Q01DX001 (ip), vehicle: saline
[12] = dose: 200.0 mg/kg/injection, schedule: Q01DX001 (ip), vehicle: saline
[13] = dose: 50.0 mg/kg/injection, schedule: Q01DX009 (ip), vehicle: saline
[14] = dose: 100.0 mg/kg/injection, schedule: Q01DX001 (ip), vehicle: carboxymethylcellulose (CMC)
[15] = dose: 200.0 mg/kg/injection, schedule: Q01DX001 (ip), vehicle: carboxymethylcellulose (CMC)
[16] = dose: 100.0 mg/kg/injection, schedule: Q01DX009 (ip), vehicle: saline with Tween-80
[17] = dose: 200.0 mg/kg/injection, schedule: Q01DX009 (ip), vehicle: saline with Tween-80

Measured: T/C

CC(C)(C=O)CO
inactive: dose: 100.0 mg/kg/injection, schedule: Q04DX002 (ip), vehicle: saline with Tween-80 94 % of control | dose: 200.0 mg/kg/injection, schedule: Q04DX002 (ip), vehicle: saline with Tween-80 97 % of control | dose: 400.0 mg/kg/injection, schedule: Q04DX002 (ip), vehicle: saline with Tween-80 91 % of control

O=C(c1ccccc1)C1CN(C2CCCCC2)C1c1ccccc1 (stereo unspecified)
inactive: [1] 109 % of control and 97 % of control | [2] 95 % of control | [3] 117 % of control and 99 % of control | [4] 93 % of control | [5] 97 % of control and 91 % of control | [6] 97 % of control

O=[N+]([O-])c1cc(Cl)cc2c1-c1c(Cl)cc(Cl)cc1/C2=N/O
inactive: [7] 106 % of control | [8] 94 % of control | [2] 101 % of control

CCOP(=S)(OCC)N1c2ccccc2Sc2ccccc21
inactive: dose: 100.0 mg/kg/injection, schedule: Q04DX003 (ip), vehicle: saline with Tween-80 92 % of control | dose: 200.0 mg/kg/injection, schedule: Q04DX003 (ip), vehicle: saline with Tween-80 91 % of control

CC(c1ccccc1)C(C#N)c1ccccc1 (stereo unspecified)
inactive: [9] 97 % of control | [2] 97 % of control | [10] 98 % of control | [4] 92 % of control | dose: 400.0 mg/kg/injection, schedule: Q01DX009 (ip), vehicle: Klucel (hydroxypropylcellulose) (HPC) 88 % of control | [6] 89 % of control

c1ccc(C2(c3ccccc3)CC([P+](c3ccccc3)(c3ccccc3)c3ccccc3)=NN2)cc1
inactive: [11] 108 % of control | [12] 115 % of control

COc1cc2c(cc1OC)C1(NCC2)C(=O)c2ccccc2C1=O
inactive: [1] 100 % of control | [3] 106 % of control | [5] 117 % of control

CCC1(C(C)Br)OC2=C(CC(C#N)(C#N)C(C#N)(C#N)C2)O1 (stereo unspecified)
inactive: dose: 25.0 mg/kg/injection, schedule: Q01DX009 (ip), vehicle: other 100 % of control | [13] 87 % of control | dose: 75.0 mg/kg/injection, schedule: Q01DX001 (ip), vehicle: saline 100 % of control | dose: 75.0 mg/kg/injection, schedule: Q01DX009 (ip), vehicle: other 87 % of control

CC1C=CCC(C)(C)C1 (stereo unspecified)
inactive: [14] 95 % of control | [15] 100 % of control | dose: 200.0 mg/kg/injection, schedule: Q01DX009 (ip), vehicle: carboxymethylcellulose (CMC) 94 % of control | dose: 400.0 mg/kg/injection, schedule: Q01DX001 (ip), vehicle: carboxymethylcellulose (CMC) 114 % of control | dose: 400.0 mg/kg/injection, schedule: Q01DX009 (ip), vehicle: carboxymethylcellulose (CMC) 90 % of control | dose: 600.0 mg/kg/injection, schedule: Q01DX009 (ip), vehicle: carboxymethylcellulose (CMC) 92 % of control

COc1cc(/C=N/Nc2nnc(N/N=C/c3cc(I)c(O)c(OC)c3)c3ccccc23)cc(I)c1O
inactive: dose: 50.0 mg/kg/injection, schedule: Q01DX001 (ip), vehicle: saline 95 % of control | [11] 95 % of control | [12] 101 % of control | dose: 400.0 mg/kg/injection, schedule: Q01DX001 (ip), vehicle: saline 97 % of control

Nc1ncnc2c1ncn2C1OC(C2CC2)C(O)C1O (stereo unspecified)
inactive: dose: 25.0 mg/kg/injection, schedule: Q01DX005 (ip), vehicle: saline 111 % of control | dose: 50.0 mg/kg/injection, schedule: Q01DX005 (ip), vehicle: saline 104 % of control | dose: 100.0 mg/kg/injection, schedule: Q01DX005 (ip), vehicle: saline 98 % of control | dose: 200.0 mg/kg/injection, schedule: Q01DX005 (ip), vehicle: saline 94 % of control

CC1=C(N)C(=O)C(C)=C(N)C1=O
inactive: dose: 100.0 mg/kg/injection, schedule: Q01DX001 (ip), vehicle: other 98 % of control | dose: 200.0 mg/kg/injection, schedule: Q01DX001 (ip), vehicle: other 88 % of control | dose: 400.0 mg/kg/injection, schedule: Q01DX001 (ip), vehicle: other 97 % of control

CC1=NN(c2ccccc2)C(=O)/C1=C\c1ccccc1
inactive: [9] 97 % of control | [10] 95 % of control

CN(Cc1cnc2nc(N[Si](C)(C)C)nc(N[Si](C)(C)C)c2n1)c1ccc(C(=O)NC(CCC(=O)O[Si](C)(C)C)C(=O)O[Si](C)(C)C)cc1 (stereo unspecified)
active: dose: 1.25 mg/kg/injection, schedule: Q01DX009 (ip), vehicle: saline with Tween-80 164 % of control | dose: 2.5 mg/kg/injection, schedule: Q01DX009 (ip), vehicle: saline with Tween-80 187 % of control | dose: 5.0 mg/kg/injection, schedule: Q01DX009 (ip), vehicle: saline with Tween-80 152 % of control | dose: 5.0 mg/kg/injection, schedule: Q01DX009 (ip), vehicle: saline 183 % of control | dose: 10.0 mg/kg/injection, schedule: Q01DX009 (ip), vehicle: saline 204 % of control
inactive: dose: 0.62 mg/kg/injection, schedule: Q01DX009 (ip), vehicle: saline 112 % of control | dose: 1.25 mg/kg/injection, schedule: Q01DX009 (ip), vehicle: saline 119 % of control

CC(C)C[C@H](O)C(=O)O
inactive: dose: 33.0 mg/kg/injection, schedule: Q01DX009 (ip), vehicle: saline 98 % of control | [13] 98 % of control | dose: 75.0 mg/kg/injection, schedule: Q01DX009 (ip), vehicle: saline 98 % of control | dose: 100.0 mg/kg/injection, schedule: Q01DX009 (ip), vehicle: saline 97 % of control | dose: 100.0 mg/kg/injection, schedule: Q04DX003 (ip), vehicle: saline 98 % of control | dose: 200.0 mg/kg/injection, schedule: Q01DX009 (ip), vehicle: saline 101 % of control | dose: 200.0 mg/kg/injection, schedule: Q04DX003 (ip), vehicle: saline 100 % of control

CC(CNC(=O)CCOS(C)(=O)=O)NC(=O)CCOS(C)(=O)=O (stereo unspecified)
active: dose: 113.0 mg/kg/injection, schedule: Q01DX Z (ip), vehicle: carboxymethylcellulose (CMC) 153 % of control
inactive: dose: 22.0 mg/kg/injection, schedule: Q01DX Z (ip), vehicle: carboxymethylcellulose (CMC) 104 % of control | dose: 33.0 mg/kg/injection, schedule: Q01DX Z (ip), vehicle: carboxymethylcellulose (CMC) 111 % of control | dose: 50.0 mg/kg/injection, schedule: Q01DX Z (ip), vehicle: carboxymethylcellulose (CMC) 100 % of control and 113 % of control | dose: 76.0 mg/kg/injection, schedule: Q01DX Z (ip), vehicle: carboxymethylcellulose (CMC) 107 % of control | dose: 170.0 mg/kg/injection, schedule: Q01DX Z (ip), vehicle: carboxymethylcellulose (CMC) 113 % of control

O=C(CCCCl)Oc1ccccc1
inactive: [16] 103 % of control | [17] 98 % of control

CC(C)=NNC(=O)c1ccccn1
inactive: dose: 50.0 mg/kg/injection, schedule: Q01DX001 (ip), vehicle: carboxymethylcellulose (CMC) 101 % of control | dose: 50.0 mg/kg/injection, schedule: Q01DX009 (ip), vehicle: carboxymethylcellulose (CMC) 104 % of control | dose: 50.0 mg/kg/injection, schedule: Q04DX003 (ip), vehicle: carboxymethylcellulose (CMC) 100 % of control | [14] 104 % of control | dose: 100.0 mg/kg/injection, schedule: Q01DX009 (ip), vehicle: carboxymethylcellulose (CMC) 104 % of control and 106 % of control | dose: 100.0 mg/kg/injection, schedule: Q04DX003 (ip), vehicle: carboxymethylcellulose (CMC) 115 % of control | [15] 113 % of control

O=C(NCCCl)N(O)C12CC3CC(CC(C3)C1)C2
inactive: dose: 100.0 mg/kg/injection, schedule: Q01DX001 (ip), vehicle: saline with Tween-80 90 % of control | dose: 200.0 mg/kg/injection, schedule: Q01DX001 (ip), vehicle: saline with Tween-80 97 % of control | dose: 400.0 mg/kg/injection, schedule: Q01DX001 (ip), vehicle: saline with Tween-80 98 % of control

O=C(Nc1ccc(Cl)cc1C(F)(F)F)OCCOc1ccc([N+](=O)[O-])cc1
inactive: [16] 91 % of control | [17] 94 % of control | dose: 400.0 mg/kg/injection, schedule: Q01DX009 (ip), vehicle: saline with Tween-80 95 % of control

O=C1CCC(=O)N1c1ccc(Cl)cc1
inactive: dose: 12.5 mg/kg/injection, schedule: Q01DX009 (ip), vehicle: Klucel (hydroxypropylcellulose) (HPC) 107 % of control | [7] 98 % of control | [8] 101 % of control
